Results from the supplement of paper PMC10307832.

Key:
Test in all cases: relative viability (nuclei count vs DMSO), 5 days (fraction); higher = more cells survive
[1] = compound: CCC1=CN=CN=C1N2CCN(CC2)CC3=NC4=C(N3)C=C(C=C4)C(F)(F)F + COc1cccc2cc(-c3nc([C@H]4CC[C@H](C(=O)O)CC4)n4ncnc(N)c34)[nH]c12 [OSI-027] (partner 0.5 µM)
Outline: (§1)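 Nuclei were stained with Hoechst during a one-step fixation (final 0.05% Triton X-100, 1% formaldehyde, 1 ug/ml Hoechst) carried out 5 days after dosing, then counted on 4× images. The cells, lung cancer lines in 1536-well plates, had been dosed by pin tool the day after seeding with one drug alone or a fixed anchor-drug dose plus five library-drug doses (not always all listed) in √10 steps. Relative viability is the nuclei count in treated wells divided by that in vehicle wells, and each value is the median of duplicate plates.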

[2] = compound: CCC1=CN=CN=C1N2CCN(CC2)CC3=NC4=C(N3)C=C(C=C4)C(F)(F)F + Nc1ncn([C@H]2C[C@H](O)[C@@H](CO)O2)c(=O)n1 [Decitabine] (partner 2 µM)
Outline: as §1

[3] = compound: CCn1c(-c2nonc2N)nc2cnc(Oc3cccc(NC(=O)c4ccc(OCCN5CCOCC5)cc4)c3)cc21 + Nc1ncn([C@H]2C[C@H](O)[C@@H](CO)O2)c(=O)n1 [Decitabine] (partner 2 µM)
Outline: as §1

Mirin + Foretinib = compound: N=C1NC(=O)/C(=C/c2ccc(O)cc2)S1 [Mirin] + COc1cc2c(Oc3ccc(NC(=O)C4(C(=O)Nc5ccc(F)cc5)CC4)cc3F)ccnc2cc1OCCCN1CCOCC1 [Foretinib] (partner 0.25 µM)
Outline: as §1

Cell Line | relative viability ([1]; first compound 0.04 µM) | relative viability ([1]; first compound 0.1265 µM) | relative viability ([1]; first compound 0.4 µM) | relative viability ([1]; first compound 1.265 µM) | relative viability ([1]; first compound 4 µM) | relative viability ([2]; first compound 0.04 µM) | relative viability ([2]; first compound 0.1265 µM) | relative viability ([2]; first compound 0.4 µM) | relative viability ([2]; first compound 1.265 µM) | relative viability ([2]; first compound 4 µM) | relative viability ([3]; first compound 0.04 µM) | relative viability ([3]; first compound 0.1265 µM) | relative viability ([3]; first compound 0.4 µM) | relative viability ([3]; first compound 1.265 µM) | relative viability ([3]; first compound 4 µM) | relative viability (Mirin + Foretinib; first compound 0.25 µM) | relative viability (Mirin + Foretinib; first compound 0.7906 µM) | relative viability (Mirin + Foretinib; first compound 2.5 µM) | relative viability (Mirin + Foretinib; first compound 7.906 µM) | relative viability (Mirin + Foretinib; first compound 25 µM)
LU99A | 0.287 | 0.281 | 0.316 | 0.283 | 0.289 | 0.906 | 0.877 | 0.785 | 0.837 | 0.843 | 1.03 | 0.994 | 0.929 | 1.02 | 0.844 | 0.71 | 0.631 | 0.795 | 0.71 | 0.566
LXF-289 | 0.762 | 0.713 | 0.628 | 0.643 | 0.815 | 0.348 | 0.325 | 0.426 | 0.343 | 0.419 | 0.359 | 0.403 | 0.353 | 0.384 | 0.318 | 1.04 | 1.03 | 0.939 | 1.09 | 1.01
NCI-H23 | 0.603 | 0.65 | 0.641 | 0.58 | 0.551 | 0.288 | 0.31 | 0.282 | 0.252 | 0.358 | 0.362 | 0.342 | 0.334 | 0.234 | 0.263 | 0.8 |  | 1.13 | 0.891 | 0.773
NCI-H322M | 0.608 | 0.495 | 0.59 | 0.449 | 0.527 | 0.687 | 0.658 | 0.632 | 0.654 | 0.699 | 0.585 | 0.63 | 0.824 | 0.767 | 0.648 | 1.06 | 1.02 | 1.07 | 0.934 | 1.05
NCI-H522 | 0.656 | 0.771 | 0.575 | 0.627 | 0.675 | 0.666 | 0.63 | 0.821 | 0.621 | 0.797 | 0.672 | 0.819 | 0.698 | 0.648 | 0.621 |  |  |  |  | 
NCI-H1299 |  |  |  |  |  |  |  |  |  |  |  |  |  |  |  | 1.1 | 1.15 | 1.07 | 1.12 | 1.24
NCI-H1563 | 0.813 | 0.788 | 0.733 | 0.685 | 0.821 |  |  |  |  |  |  |  |  |  |  | 0.962 | 0.974 | 0.865 | 1.03 | 0.875
NCI-H1623 | 0.399 | 0.39 | 0.431 | 0.437 | 0.432 |  |  |  |  |  |  |  |  |  |  | 0.787 | 0.708 | 0.865 | 0.716 | 0.625
NCI-H1648 | 0.259 | 0.278 |  | 0.278 | 0.314 | 0.502 |  |  | 0.511 | 0.502 | 0.55 | 0.65 | 0.85 | 0.695 | 0.675 |  |  |  |  | 
NCI-H1703 |  |  |  |  |  |  |  |  |  |  |  |  |  |  |  | 0.309 | 0.31 | 0.368 | 0.413 | 0.3
NCI-H1792 | 0.89 | 0.684 | 0.698 | 0.668 | 0.547 | 0.543 | 0.437 | 0.57 |  | 0.523 | 0.45 | 0.637 | 0.461 | 0.433 | 0.372 |  |  |  |  | 
NCI-H2228 | 0.535 | 0.633 | 0.487 | 0.635 | 0.656 |  |  |  |  |  |  |  |  |  |  | 0.689 | 0.883 | 0.974 | 1.1 | 0.752
